SMILES strings stand for the structures.

One data set deals with NLRP3. The data set can be described thus: NLRP3 ELISA in LPS-stimulated RAW 264.7 cells. In kind it is cell-based, murine. Conditions: for inhibition at 40 µM: Mus musculus, RAW264.7, read-out: NLRP3 inhibition rate; for NLRP3 inhibition (result in words): 40 µM.
The nature of data set [1]: DPPH radical scavenging assay (antioxidant activity). In kind it is biochemical. Conditions: in methanol, 30 min, absorbance at 540 nm. The method, then:
Absorbance was measured at 540 nm. All experiments were conducted in triplicate.

Data set [2] is described as follows: MTT cell viability assay in RAW 264.7 cells. Type of data set: cell-based, murine. Conditions: mouse, RAW 264.7 macrophage cells, RAW 264.7, MTT; for viability at 24 h: tested concentrations up to 40 μM. The method, then: (§1) Absorbance was measured at 570 nm using a microplate reader.
(§2) All experiments were performed in triplicate.

For data set [3], the system named is nitric oxide (NO) production in LPS-stimulated RAW 264.7 cells. As to the kind of experiment: Nitric oxide production in LPS-stimulated RAW 264.7 cells (Griess reagent). Type of data set: cell-based, murine. Conditions: for effect on NO production (result in words): 5, 10, 20 and 40 µM, LPS-stimulated RAW 264.7; for reduction of NO production: 40 µM, relative to the LPS-treated group, LPS 24 h.
Protocol: NO levels in the culture supernatants were quantified using the Griess reagent assay, and absorbance was measured at 540 nm.
RAW 264.7 cells were maintained in Dulbecco’s Modified Eagle Medium (DMEM, Sigma-Aldrich, St. Louis, MO, USA) supplemented with 10% heat-inactivated fetal bovine serum (FBS, Invitrogen, Burlington, ON, Canada) and 1% (w/v) antibiotic-antimycotic solution (Invitrogen, Grand Island, NY, USA). The cells were cultured in a humidified incubator at 37 °C under 95% air and 5% CO2 conditions.
The production of NO was quantified by measuring nitrite levels in the culture supernatants using the Griess reagent (1% sulfanilamide, 0.1% N-(1-naphthyl)-ethylenediamine dihydrochloride, and 5% phosphoric acid). […] The cells were then stimulated with 0.5 μg/mL lipopolysaccharide (LPS, Sigma-Aldrich, CA, USA) for 24 h in a total volume of 200 μL. After incubation, 100 μL of culture supernatant was mixed with an equal volume of Griess reagent and incubated at room temperature for 5 min. Sodium nitrite was used as a standard for calibration, and nitrite concentration was determined by measuring absorbance at 540 nm. All experiments were conducted in triplicate.

The target of a further data set is T1, β-secretase (BACE-1) (Homo sapiens, UniProt P56817).
T1 construct: purchased Thermo Fisher Scientific, San Diego, CA, USA
T1 sequence (P56817 46-501): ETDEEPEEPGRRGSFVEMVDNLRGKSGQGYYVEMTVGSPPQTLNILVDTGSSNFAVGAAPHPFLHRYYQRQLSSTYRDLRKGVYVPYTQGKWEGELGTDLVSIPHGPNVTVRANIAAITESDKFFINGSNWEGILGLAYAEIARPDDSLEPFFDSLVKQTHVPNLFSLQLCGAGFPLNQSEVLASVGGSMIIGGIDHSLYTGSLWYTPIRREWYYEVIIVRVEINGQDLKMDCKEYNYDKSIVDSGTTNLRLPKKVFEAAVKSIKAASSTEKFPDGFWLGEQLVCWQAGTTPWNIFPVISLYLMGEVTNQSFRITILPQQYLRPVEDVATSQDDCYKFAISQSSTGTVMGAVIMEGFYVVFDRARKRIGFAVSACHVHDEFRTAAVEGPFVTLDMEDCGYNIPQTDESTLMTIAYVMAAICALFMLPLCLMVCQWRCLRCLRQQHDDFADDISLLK
The data set can be described thus: BACE-1 FRET-based inhibition assay. In kind it is biochemical. Conditions: 60 min at room temperature, mean ± SD, ND = no detectable inhibitory activity.

The target in data set [4] is T2, tau protein (tau-BiFC SH-SY5Y cell line) (Homo sapiens, UniProt P10636).
T2 construct: split fluorescent protein fragments for BiFC (complementing N- and C-terminal halves); expressed in transfected cells; host or cells: SH-SY5Y
T2 sequence (P10636 1-441 isoform P10636-8): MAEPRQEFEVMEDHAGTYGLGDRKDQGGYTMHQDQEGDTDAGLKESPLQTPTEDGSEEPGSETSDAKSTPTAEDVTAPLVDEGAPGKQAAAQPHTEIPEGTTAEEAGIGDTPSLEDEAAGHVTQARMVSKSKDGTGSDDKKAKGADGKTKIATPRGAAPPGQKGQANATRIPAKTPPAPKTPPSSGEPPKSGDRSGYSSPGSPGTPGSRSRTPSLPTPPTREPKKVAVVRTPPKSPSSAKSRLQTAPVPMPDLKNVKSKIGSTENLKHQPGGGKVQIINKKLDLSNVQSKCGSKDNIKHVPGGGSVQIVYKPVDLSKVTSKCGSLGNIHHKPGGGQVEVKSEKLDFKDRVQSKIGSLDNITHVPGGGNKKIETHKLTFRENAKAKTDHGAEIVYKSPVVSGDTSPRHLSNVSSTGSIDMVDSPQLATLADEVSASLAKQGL
The data set can be described thus: Tau-BiFC SH-SY5Y anti-tau aggregation assay. Type of data set: cell-based. Conditions: 10 μM, 24 h, compared to the control group. Here is the method:
Cells were maintained at 37 °C in a humidified incubator with 5% CO2.

The test system of a further data set is RAW 264.7 cells. The data set can be described thus: MTT cell viability assay in RAW 264.7 cells. Conditions: RAW 264.7, MTT, 24 h, 5-40 μM. In kind it is cell-based, murine. The method, then:
as §1, §2

Protocol for NLRP3: For evaluating the NLRP3 inhibitory activity, the highest concentration of 40 µM was selected, as this concentration had previously been confirmed to maintain cell viability (Section 2.4.1).
To assess NLRP3 inflammasome activation, RAW 264.7 macrophages were seeded at a density of 5 × 10^5 cells/well in 96-well plates. […] The levels of NLRP3 in the culture supernatant were quantified using a commercially available ELISA kit (Lsbio, WA, USA) according to the manufacturer’s protocol. Absorbance was measured at 450 nm, and NLRP3 concentrations were determined using a standard curve, expressed in ng/mL. To ensure statistical accuracy, all experiments were performed in duplicate.
Protocol for β-secretase (BACE-1): The reaction was initiated by adding 10 µL of a 3× BACE-1 enzyme solution. Plates were incubated at room temperature for 60 min in the dark. After incubation, 10 µL of 2.5 mM sodium acetate was added to terminate the reaction. Fluorescence was measured using a multimode plate reader (Multiskan™ GO, Thermo Scientific, Waltham, MA, USA) with an excitation wavelength of 545 nm and an emission wavelength of 585 nm. The IC50 values were determined by plotting relative fluorescence units per hour (RFU/h) against the logarithmic inhibitor concentrations. All experiments were performed in triplicate.

Take `NC(CCC(=O)NNc1ccccc1C(F)(F)F)C(=O)O` (stereo not drawn) [RA-2CF3, N^5-((2-(triflouromethyl)phenyl)amino)glutamine]: the inhibition at 40 µM in the data set on NLRP3 was at least 20%. Further, the half-inhibitory concentration (IC50) in data set [1] is 3 ± 0.03 µM; at β-secretase (BACE-1), 11.6 ± 14 µM. Further, the viability at 24 h in data set [2] is over 100%. The “effect on NO production (result in words)” value (shortened to “effect on NO production”) in data set [3] is on record as “moderate NO-reducing effect”.

As for `COc1ccccc1NNC(=O)CC[C@H](N)C(=O)O` [RA-2OMe, N^5-((2-methoxyphenyl)amino)glutamine], in the data set on NLRP3, the inhibition at 40 µM was at least 20%. In addition, the “anti-tau aggregation effect (BiFC fluorescence, result in words)” value (“anti-tau aggregation effect” below) in data set [4] is “moderate inhibitory effects”. The compound further came in with a half-maximal inhibitory concentration (IC50) in data set [1] of 2.81 ± 0.03 µM. For the same compound, in data set [2], the viability at 24 h is over 100%. Also, in data set [3], the “reduction of NO production” value is 25~35% and the “effect on NO production” value was “concentration-dependent reduction in NO levels”. At β-secretase (BACE-1), this compound registered a concentration for half-maximal inhibition (IC50) of 7.97 ± 2.46 µM.

As to `N[C@@H](CCC(=O)NNc1ccc2ccccc2n1)C(=O)O` [RA-2Q, N^5-(quinolin-2-ylamino)glutamine], the inhibition at 40 µM with NLRP3 was at least 20%. Moreover, in data set [4], the “anti-tau aggregation effect” value is given as “significant reductions in tau aggregation”. Further, in data set [1], the midpoint of inhibition, the IC50, lay at 9.7 ± 0.32 µM. The “cytotoxicity (result in words)” value with RAW 264.7 cells is “no significant reduction in cell survival”. Moreover, the “effect on NO production” value in data set [3] is given as “did not significantly suppress NO production”. In addition, the “BACE-1 IC50” value at β-secretase (BACE-1) is on record as “no detectable BACE-1 inhibitory activity (ND)”.

Regarding `NC(CCC(=O)NNc1cccc(C(F)(F)F)c1)C(=O)O` (stereo not drawn) [RA-3CF3, N^5-((3-(triflouromethyl)phenyl)amino)glutamine], the inhibition at 40 µM with NLRP3 lay in the range of 10 to 15%. Also, the “anti-tau aggregation effect” value in data set [4] is reported as “did not show significant anti-tau effects”. The half-maximal inhibitory concentration (IC50) in data set [1] stood at 31.7 ± 14.6 µM; at β-secretase (BACE-1) it was 0.33 ± 0.79 µM. The compound further had a viability at 24 h in data set [2] of over 100%. Besides, in data set [3], the “effect on NO production” value is “concentration-dependent reduction in NO levels”.

Turning to `NC(CCC(=O)NNc1ccc(OC(F)(F)F)cc1)C(=O)O` (stereo not drawn) [RA-4OCF3, N^5-((4-(triflouromethoxy)phenyl)amino)glutamine], the inhibition at 40 µM in the data set with NLRP3 is at least 20%. In addition, the figures for the IC50 (in data set [1]; against β-secretase (BACE-1)) were 3.77 ± 0.09 µM and 9.89 ± 13.6 µM, respectively. Also, in data set [2], the viability at 24 h is over 100%. Besides, the “effect on NO production” value in data set [3] is recorded as “concentration-dependent reduction in NO levels”.

For the compound `COc1ccc(NNC(=O)CC[C@H](N)C(=O)O)cc1` [RA-4OMe, N^5-((4-methoxyphenyl)amino)glutamine], the inhibition at 40 µM in the data set with NLRP3 was at least 20%. Moreover, in data set [4], the “anti-tau aggregation effect” value is given as “moderate inhibitory effects”. Besides, in data set [1], half-maximal inhibition (IC50) was put at 5.49 ± 0.63 µM. In data set [2], this compound registered a viability at 24 h of over 100%. Also, in data set [3], the “reduction of NO production” value was 25~35% and the “effect on NO production” value is on record as “concentration-dependent reduction in NO levels”. In addition, on β-secretase (BACE-1), the IC50 worked out at 25 ± 5.72 µM.

For the compound `CN(C)NC(=O)CC[C@H](N)C(=O)O` [RA-DMe, N^5-(dimethylamino)glutamine], in the data set with NLRP3, the “NLRP3 inhibition (result in words)” value is recorded as “no significant NLRP3-inhibitory effects”. Moreover, the “anti-tau aggregation effect” value in data set [4] was “did not exhibit significant anti-tau aggregation activity”. In data set [1], the IC50 came out at 598 µM. In addition, in data set [2], the viability at 24 h, 40 µM is over 80%. Further, the “effect on NO production” value in data set [3] was “moderate NO-reducing effect”. Moreover, the “BACE-1 IC50” value at β-secretase (BACE-1) is reported as “no detectable BACE-1 inhibitory activity (ND)”.

As to `CC(C)NNC(=O)CC[C@H](N)C(=O)O` [RA-IPr, N^5-(Isopropylamino)glutamine], the “NLRP3 inhibition (result in words)” value with NLRP3 is “no significant NLRP3-inhibitory effects”. Also, in data set [4], the “anti-tau aggregation effect” value is “did not exhibit significant anti-tau aggregation activity”. Besides, the IC50 in data set [1] was 2580 ± 359 µM. Moreover, the “cytotoxicity (result in words)” value with RAW 264.7 cells is “no significant reduction in cell survival”. Besides, the “effect on NO production” value in data set [3] is “did not significantly suppress NO production”. Also, on β-secretase (BACE-1), the “BACE-1 IC50” value is “no detectable BACE-1 inhibitory activity (ND)”.

In the case of `NC(CCC(=O)NNc1cccc2ccccc12)C(=O)O` (stereo not drawn) [RA-NAP], the inhibition at 40 µM with NLRP3 lay within 10 to 15%. For the same compound, the “anti-tau aggregation effect” value in data set [4] is reported as “significant reductions in tau aggregation”. In addition, the IC50 is 1.77 ± 0.12 µM in data set [1] and 0.66 ± 1.05 µM at β-secretase (BACE-1). In data set [2], the viability at 24 h, 40 µM was over 80%. Moreover, the “effect on NO production” value in data set [3] is listed as “moderate NO-reducing effect”.

`N[C@@H](CCC(=O)NNc1ccccn1)C(=O)O` [RA-PYD, N^5-(pyridin-2-ylamino)glutamine]: the inhibition at 40 µM in the data set with NLRP3 was at least 20%. Besides, the “anti-tau aggregation effect” value in data set [4] was “significant reductions in tau aggregation”. For the same compound, the figures for the IC50 (in data set [1]; on β-secretase (BACE-1)) were 7.4 ± 3.54 µM and 0.32 ± 0.08 µM, respectively. Moreover, the “cytotoxicity (result in words)” value in the data set on RAW 264.7 cells is given as “no significant reduction in cell survival”. For the same compound, the “effect on NO production” value in data set [3] is “did not significantly suppress NO production”.
